In patent US20130005696A1, “BUFADIENOLIDE DERIVATIVES, PREPARING PROCESS THEREOF, COMPOSITION COMPRISING THE SAME AND THE USE THEREOF” (priority 2011, published 2013):

System: human-derived colon carcinoma HCT-116 xenograft
Assay: Therapeutic effect against HCT-116 xenograft in nude mice
Type: in vivo, Balb/c nude mice
Conditions: QOD × 14 d
Experimental: This experiment is to investigate the in vivo inhibitory effect of II1E-01.HCl on growth of human-derived hepatic carcinoma HepG2 cell, human-derived breast carcinoma MDA-MB-231 cell, human-derived lung carcinoma H460 cell, human-derived colon carcinoma HCT-116 cell, human-derived […] MV-4-11 cell xenografts in nude mice.
Formulation of solvent control (5% anhydrous ethanol & 5% aqueous glucose solution): 2.5 mL anhydrous ethanol was added into a 50 mL tube, followed by addition of 47.5 mL 5% glucose solution for injection followed by shaking, and stored at room temperature before use.
Formulation of the preparations of the compounds to be tested: formulations with concentrations of 0.4 mg/mL and 0.6 mg/mL were prepared respectively. An appropriate amount of II1E-01.HCl was weighted and put into a 50 mL tube, followed by addition of corresponding volume of solvent to get the desired concentration and mixed using a vortex mixer. After the solid was dissolved completely, the solution was subpackaged into 4 mL vials and stored at refrigerated condition (2-8° C.) until use.
Experimental animals: Balb/c nude mice (male, six weeks old).
HCT116 cells were in vitro cultured to be proliferated. The cells in the log phase of growth were collected, resuspended in RPMI-1640 serum-free medium, and then implanted subcutaneously into the axilla of the right forelimb of nude mice. After 14 days, the tumor size reached about 470 mm^3. The mice bearing the tumor were grouped by randomized block method according to the tumor size into 3 groups, including the group of solvent control and groups of 4 mg/kg and 6 mg/kg dosages of the testing compound II1E-01.HCl. In the solvent control group, glucose injection was administered intravenously at tail once every other day (QOD). The testing compound II1E-01.HCl was administered intravenously (iv) at tail once every other day (QOD). The animals were given the drugs for 14 days, during which, the growth of tumor and the body weight of the mice were observed.
After continuously administering for 14 days (the 28th day after the implantation), the tumor weight and inhibition rate were calculated, and results are listed in Table 8.

SMILES: C[C@]12CC[C@H](OC(=O)NC3CCNCC3)C[C@H]1CC[C@@H]1[C@@H]2CC[C@]2(C)[C@@H](c3ccc(=O)oc3)CC[C@]12O.Cl [II1E-01•HCl]
- Tumor Weight(g) Mean ± SE (4 mg/kg iv): 0.8017 ± 0.0480 g
- Inhibition Rate (%) (4 mg/kg iv, 4 mg/kg): 36.82%
- Inhibition Rate (%) (4 mg/kg iv, listed as II1E-01.HCl, 4 mg/kg): 36.82%
- Tumor Weight(g) Mean ± SE (6 mg/kg iv): 0.4147 ± 0.0212 g
- Inhibition Rate (%) (6 mg/kg iv, 6 mg/kg): 67.33%
- Inhibition Rate (%) (6 mg/kg iv, listed as II1E-01.HCl, 6 mg/kg): 67.33%
